In patent US8497278B2, “Imidazo[1,2-a]pyridine compounds” (priority 2008, dated 2013):

How the values were obtained:
[1] = biological target: T1, α2 subtype containing GABA-A receptors (Homo sapiens, UniProt P18507+P47869); assay: Two-electrode voltage clamp electrophysiology in Xenopus oocytes, potentiation of GABA EC20 response, α2; type: cell-based; conditions: 100 nM compound; for activation at 0.1 µM: read-out: Percentage of potentiation alpha2
T1 construct: expressed in transfected cells; host or cells: Xenopus laevis oocytes, cRNA injected
Method: (§1) Electrophysiology protocol: Oocytes were prepared from adult female Xenopus laevis frogs. cRNA encoding human α1, α2, α3, α5, β3 and γ2L GABAA receptor subunits was injected into the cytoplasm of stage 5 or 6 oocytes using the Robocyte Robot (Multi Channel Systems, Reutlingen, Germany). Two-electrode voltage clamp recordings were made in 96-well plates using the Robocyte Robot. Oocytes were impaled using recording heads with two glass electrodes containing 1.5 M potassium acetate and 0.5 M KCl and held at a membrane potential of −80 mV. Oocytes were continually perfused with a ND96 solution (96 mM NaCl, 2 mM KCl, 0.1 mM CaCl2, and 5 mM HEPES, pH 7.5) using a Gilson 222 XL Liquid Handler and Gilson Minipuls 3 Peristaltic Pump (Gilson Medical Electronics, Middleton, Wis., USA). The protocol consisted of three 20-s applications of GABA that gave a 20% of the maximum response (EC20: 60 μM) to allow for headroom to determine a baseline GABA response. To assess the potentiation, oocytes were first exposed to a single 1 μM chlordiazepoxide (CDP) as a potentiation standard. Oocytes with insufficient expression levels (currents below threshold) or insufficient γ2L subunit incorporation (judged by rapid desensitization upon GABA application, or by insufficient potentiation by CDP) were not included in analysis. Following this control application, a given oocyte was exposed to test compounds at 100 nM concentrations. Only one concentration of one compound was tested per oocyte. […] One skilled in the art will recognize that subtypes contribute to the effects of GABA-A modulators. Such that compounds favoring different subtypes can have different therapeutic effects. The magnitude of modulation, for example, partial modulators can influence the effects in vivo. “++” indicates a greater modulation that “+” so that at any given subtype “++” inducates a greater amount of modulation for that subtype. In some embodiments, modulation favoring alpha 1 relative to alpha2 and/or alpha 3 can have sedative hypnotic effects. In other embodiments, compounds with reduced selectivity of alpha 1 can express anxiolytic effects with less sedation. Compounds with selectivity for alpha 5 can have memory/cognition enhancing effects.

[2] = biological target: T2, α1 subtype containing GABA-A receptors (Homo sapiens, UniProt P14867+P18507); assay: Two-electrode voltage clamp electrophysiology in Xenopus oocytes, potentiation of GABA EC20 response, α1; type: cell-based; conditions: 100 nM compound; for activation at 0.1 µM: read-out: Percentage of potentiation alpha1
T2 construct: expressed in transfected cells; host or cells: Xenopus laevis oocytes, cRNA injected
Method: as §1

[3] = tested on: central benzodiazepine receptors; assay: Central benzodiazepine receptor binding (test of Speth et al.); conditions: 1000 nM of the compound
Method in brief: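 Radioligand binding by the Speth et al. method. Specific binding is total minus nonspecific binding, the latter measured with excess unlabelled ligand. Compounds screened at 1.0E-09, 1.0E-07 and 1.0E-05 M in single determination; values given as percent inhibition at 1000 nM compound.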

T2 sequence (P14867 28-456): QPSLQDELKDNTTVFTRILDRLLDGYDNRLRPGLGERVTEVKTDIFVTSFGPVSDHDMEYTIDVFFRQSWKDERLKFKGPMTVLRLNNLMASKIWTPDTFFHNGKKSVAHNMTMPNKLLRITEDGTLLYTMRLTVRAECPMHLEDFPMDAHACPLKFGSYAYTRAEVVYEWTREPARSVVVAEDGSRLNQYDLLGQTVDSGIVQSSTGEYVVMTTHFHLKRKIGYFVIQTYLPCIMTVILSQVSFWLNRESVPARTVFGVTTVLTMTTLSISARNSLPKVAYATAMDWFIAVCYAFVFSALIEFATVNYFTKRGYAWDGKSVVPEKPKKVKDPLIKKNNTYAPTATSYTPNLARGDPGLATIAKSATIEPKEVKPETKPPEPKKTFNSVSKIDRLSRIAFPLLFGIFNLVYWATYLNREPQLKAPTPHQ
T2 sequence (P28472 26-473 partner): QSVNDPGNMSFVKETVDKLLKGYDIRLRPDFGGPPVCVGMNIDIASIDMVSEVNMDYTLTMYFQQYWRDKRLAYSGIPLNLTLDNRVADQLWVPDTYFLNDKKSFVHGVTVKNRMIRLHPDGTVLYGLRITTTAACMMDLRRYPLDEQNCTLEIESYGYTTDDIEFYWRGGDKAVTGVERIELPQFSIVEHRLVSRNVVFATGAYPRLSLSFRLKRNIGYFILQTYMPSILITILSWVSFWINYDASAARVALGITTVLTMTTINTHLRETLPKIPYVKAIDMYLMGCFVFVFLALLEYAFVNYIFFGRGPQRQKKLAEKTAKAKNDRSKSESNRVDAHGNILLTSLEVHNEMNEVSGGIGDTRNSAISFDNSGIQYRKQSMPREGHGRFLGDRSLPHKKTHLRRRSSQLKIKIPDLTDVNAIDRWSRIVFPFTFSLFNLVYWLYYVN
T2 sequence (P18507 40-475): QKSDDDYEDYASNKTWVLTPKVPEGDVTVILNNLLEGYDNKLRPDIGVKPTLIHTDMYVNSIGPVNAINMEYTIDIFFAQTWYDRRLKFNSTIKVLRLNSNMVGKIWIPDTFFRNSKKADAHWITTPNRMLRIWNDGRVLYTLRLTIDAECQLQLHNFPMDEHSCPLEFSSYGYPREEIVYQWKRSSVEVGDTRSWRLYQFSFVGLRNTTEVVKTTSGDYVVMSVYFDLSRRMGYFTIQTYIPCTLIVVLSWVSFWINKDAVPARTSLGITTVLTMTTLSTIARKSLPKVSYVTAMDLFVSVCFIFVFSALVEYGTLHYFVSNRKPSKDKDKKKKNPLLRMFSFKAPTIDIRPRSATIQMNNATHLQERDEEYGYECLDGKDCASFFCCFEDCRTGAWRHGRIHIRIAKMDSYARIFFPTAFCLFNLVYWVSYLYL
T1 sequence (P47869 29-451): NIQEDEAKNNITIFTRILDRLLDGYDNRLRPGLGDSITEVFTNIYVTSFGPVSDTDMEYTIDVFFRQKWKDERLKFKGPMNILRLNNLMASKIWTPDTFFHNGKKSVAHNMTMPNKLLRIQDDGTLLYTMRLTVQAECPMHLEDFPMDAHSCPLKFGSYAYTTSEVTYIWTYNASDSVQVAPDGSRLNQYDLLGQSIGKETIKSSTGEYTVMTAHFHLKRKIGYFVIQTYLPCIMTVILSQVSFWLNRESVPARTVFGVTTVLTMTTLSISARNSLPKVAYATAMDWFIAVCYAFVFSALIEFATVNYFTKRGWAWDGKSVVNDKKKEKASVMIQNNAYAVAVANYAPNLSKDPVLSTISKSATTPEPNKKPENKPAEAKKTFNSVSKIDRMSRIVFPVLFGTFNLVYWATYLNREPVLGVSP
T1 sequence (P28472 26-473 partner): as the sequence (P28472 26-473 partner) above
T1 sequence (P18507 40-475): as the sequence (P18507 40-475) above

| SMILES | activation at 0.1 µM [2] | % Inhibition at 1000 nM for CBZD [3] | further results |
| --- | --- | --- | --- |
| O=C(NO)c1nc(Cc2c(-c3ccc(Cl)cc3)nc3ccc(F)cn23)no1 [Compound 222, 3-((2-(4-chlorophenyl)-6-fluoroimidazo[1,2-a]pyridin-3-yl)methyl)-N-hydroxy-1,2,4-oxadiazole-5-carboxamide] | -10 to 10% |  | activation at 0.1 µM [1]: ≥ 50% |
| Clc1ccc(-c2nc3ccc(Cl)cn3c2Cc2cn[nH]n2)cc1 [Compound 227, 3-((2H-1,2,3-triazol-4-yl)methyl)-6-chloro-2-(4-chlorophenyl)imidazo[1,2-a]pyridine] | ≥ 50% | ++ (percentage of inhibition of central BZD site binding is greater than 80% in the presence of 1000 nM of the compound) |  |
| CNC(=O)c1nc(Cc2c(-c3ccc(F)cc3)nc3ccc(Cl)cn23)no1 [Compound 218, 3-((2-(4-fluorophenyl)-6-chloroimidazo[1,2-a]pyridin-3-yl)methyl)-1,2,4-oxadiazole-5-N-methyl-carboxamide] |  |  | Percentage of potentiation alpha2 [1]: ++ (percentage of potentiation is greater than or equal to 50% in the presence of 100 nM of the compound); Percentage of potentiation alpha1 [2]: + (percentage of potentiation is greater than or equal to 10% but less than 50% in the presence of 100 nM of the compound) |
| Cc1cc(Cl)nc(NCc2c(-c3ccc(F)cc3)nc3ccc(Cl)cn23)n1 [Compound 162, 4-chloro-N-((6-chloro-2-(4-fluorophenyl)imidazo[1,2-a]pyridin-3-yl)methyl)-6-methylpyrimidin-2-amine] | 10 to 50% | ++ (percentage of inhibition of central BZD site binding is greater than 80% in the presence of 1000 nM of the compound) |  |
| O=C(NO)c1nc(Cc2c(-c3ccc(F)cc3)nc3ccc(F)cn23)no1 [Compound 223, 3-((2-(4-fluorophenyl)-6-fluoroimidazo[1,2-a]pyridin-3-yl)methyl)-N-hydroxy-1,2,4-oxadiazole-5-carboxamide] | ≤ -10% |  | activation at 0.1 µM [1]: 10 to 50% |
| COC(=O)c1ncn(Cc2c(-c3ccc(Cl)cc3)nc3ccccn23)n1 [Compound 25, 1-[2-(4-Chloro-phenyl)-imidazo[1,2-a]pyridin-3-ylmethyl]-1H-[1,2,4]triazole-3-carboxylic acid methyl ester] | 10 to 50% |  | activation at 0.1 µM [1]: ≥ 50% |
| NC(=O)c1nc(Cc2c(-c3ccc(Cl)cc3)nc3ccc(F)cn23)no1 [Compound 217, 3-((2-(4-chlorophenyl)-6-fluoroimidazo[1,2-a]pyridin-3-yl)methyl)-1,2,4-oxadiazole-5-carboxamide] | 10 to 50% |  | activation at 0.1 µM [1]: ≥ 50% |
| Cc1ccc(-c2nc3ccc(C)cn3c2CNc2nc(C)cc(Cl)n2)cc1 [Compound 147, 4-chloro-6-methyl-N-((6-methyl-2-p-tolylimidazo[1,2-a]pyridin-3-yl)methyl)pyrimidin-2-amine] | ≥ 50% | ++ (percentage of inhibition of central BZD site binding is greater than 80% in the presence of 1000 nM of the compound) |  |
| CN(C)c1ccn(Cc2c(-c3ccc(Cl)cc3)nc3ccccn23)c(=O)n1 [Compound 135, 1-((2-(4-chlorophenyl)imidazo[1,2-a]pyridin-3-yl)methyl)-4-(dimethylamino)pyrimidin-2(1H)-one] |  | ++ (percentage of inhibition of central BZD site binding is greater than 80% in the presence of 1000 nM of the compound) | activation at 0.1 µM [1]: ≥ 50% |
| Cc1ccnc(NCc2c(-c3ccc(Cl)cc3)nc3ccccn23)n1 [Compound 157, [2-(4-Chloro-phenyl)-imidazo[1,2-a]pyridin-3-ylmethyl]-(4-methyl-pyrimidin-2-yl)-amine] | 10 to 50% | ++ (percentage of inhibition of central BZD site binding is greater than 80% in the presence of 1000 nM of the compound) |  |
| CNC(=O)c1cc(C)nn1Cc1c(-c2ccc(Cl)cc2)nc2ccccn12 [Compound 79, 1-((2-(4-chlorophenyl)imidazo[1,2-a]pyridin-3-yl)methyl)-N,3-dimethyl-1H-pyrazole-5-carboxamide] |  | + (percentage of inhibition of central BZD site binding is greater than 50% but less than 80% in the presence of 1000 nM of the compound) |  |
| CC(C)(C)OC(=O)N1CCCC1c1ccnc(NCc2c(-c3ccc(F)cc3)nc3ccc(Cl)cn23)n1 (centres unmarked) [Compound 194, Tert-butyl 2-(2-((6-chloro-2-(4-fluorophenyl)imidazo[1,2-a]pyridin-3-yl)methylamino)pyrimidin-4-yl)pyrrolidine-1-carboxylate] |  | + (percentage of inhibition of central BZD site binding is greater than 50% but less than 80% in the presence of 1000 nM of the compound) |  |
| CC(C)c1nnc(Cc2c(-c3ccc(Cl)cc3)nc3ccccn23)[nH]1 [Compound 231, 2-(4-chlorophenyl)-3-((5-isopropyl-4H-1,2,4-triazol-3-yl)methyl)imidazo[1,2-a]pyridine] |  | ++ (percentage of inhibition of central BZD site binding is greater than 80% in the presence of 1000 nM of the compound) |  |
| Cc1ccc(-c2nc3ccc(C)cn3c2CNc2cnccn2)cc1 [Compound 144, N-((6-methyl-2-p-tolylH-imidazo[1,2-a]pyridin-3-yl)methyl)pyrazin-2-amine] |  | ++ (percentage of inhibition of central BZD site binding is greater than 80% in the presence of 1000 nM of the compound) |  |
| Cc1cc(Cl)nc(NCc2c(-c3ccc(C#N)cc3)nc3ccc(Cl)cn23)n1 [Compound 161, 4-(6-chloro-3-((4-chloro-6-methylpyrimidin-2-ylamino)methyl)imidazo[1,2-a]pyridin-2-yl)benzonitrile] |  | ++ (percentage of inhibition of central BZD site binding is greater than 80% in the presence of 1000 nM of the compound) |  |
| COC(=O)C1Cc2ccccc2N1Cc1c(-c2ccc(Cl)cc2)nc2ccccn12 (centres unmarked) [Compound 35, Methyl 1-((2-(4-chlorophenyl)imidazo[1,2-a]pyridin-3-yl)methyl)indoline-2-carboxylate] |  | + (percentage of inhibition of central BZD site binding is greater than 50% but less than 80% in the presence of 1000 nM of the compound) |  |
| CCOC(=O)c1cc(-c2ccco2)n(Cc2c(-c3ccc(Cl)cc3)nc3ccccn23)n1 [Compound 30, Ethyl 1-((2-(4-chlorophenyl)imidazo[1,2-a]pyridin-3-yl)methyl)-5-(furan-2-yl)-1H-pyrazole-3-carboxylate] |  | + (percentage of inhibition of central BZD site binding is greater than 50% but less than 80% in the presence of 1000 nM of the compound) |  |
| Cn1ccnc1Cc1c(-c2ccc(F)cc2)nc2ccc(F)cn12 [Compound 199, 6-fluoro-2-(4-fluorophenyl)-3-((1-methyl-1H-imidazol-2-yl)methyl)imidazo[1,2-a]pyridine] |  | ++ (percentage of inhibition of central BZD site binding is greater than 80% in the presence of 1000 nM of the compound) |  |
| CNC(=O)c1cc(C)n(Cc2c(-c3ccc(Cl)cc3)nc3ccccn23)n1 [Compound 80, 1-((2-(4-chlorophenyl)imidazo[1,2-a]pyridin-3-yl)methyl)-N,5-dimethyl-1H-pyrazole-3-carboxamide] |  | ++ (percentage of inhibition of central BZD site binding is greater than 80% in the presence of 1000 nM of the compound) |  |
| Cc1ccc(-c2nc3ccc(C)cn3c2CNc2ccon2)cc1 [Compound 149, N-((6-methyl-2-p-tolylH-imidazo[1,2-a]pyridin-3-yl)methyl)isoxazole-3-amine] |  | ++ (percentage of inhibition of central BZD site binding is greater than 80% in the presence of 1000 nM of the compound) |  |
| Cc1ccc(-c2nc3c(Cl)cc(Cl)cn3c2CNc2nc(C)cc(C)n2)cc1 [Compound 172, (6,8-Dichloro-2-p-tolyl-imidazo[1,2-a]pyridin-3-ylmethyl)-(4,6-dimethyl-pyrimidin-2-yl)-amine] |  | ++ (percentage of inhibition of central BZD site binding is greater than 80% in the presence of 1000 nM of the compound) |  |
| Cc1ccc(-c2nc3ccc(C)cn3c2CON2C(=O)c3ccccc3C2=O)cc1 [Compound 173, 2-((6-methyl-2-p-tolylH-imidazo[1,2-a]pyridin-3-yl)methoxy)isoindoline-1,3-dione] |  | ++ (percentage of inhibition of central BZD site binding is greater than 80% in the presence of 1000 nM of the compound) |  |
